Results from publication PMC9781958, “Next-Generation Heterocyclic Electrophiles as Small-Molecule Covalent MurA Inhibitors” (Pharmaceuticals, 2022).
Read-outs that look alike come from different tables or passages of the source.

Experiments:
[1] = target: T1, E. coli MurA (UDP-N-acetylglucosamine 1-carboxyvinyltransferase, EC:2.5.1.7) (Escherichia coli, UniProt P0A749); experiment: MurA inhibitory assay (colorimetric malachite green method); assay type: biochemical; set-up: inferred from IMAC purification with imidazole elution; made in house; host or cells: Escherichia coli NiCo21(DE3); details: for IC50 [μM] MurA: Figure 1, methylated library, 30 min preincubation; for remaining activity at 100 µM: 0.5 h, read-out: RA% @ 100 μM MurA 30 min preincubation
T1 sequence (P0A749 whole entry): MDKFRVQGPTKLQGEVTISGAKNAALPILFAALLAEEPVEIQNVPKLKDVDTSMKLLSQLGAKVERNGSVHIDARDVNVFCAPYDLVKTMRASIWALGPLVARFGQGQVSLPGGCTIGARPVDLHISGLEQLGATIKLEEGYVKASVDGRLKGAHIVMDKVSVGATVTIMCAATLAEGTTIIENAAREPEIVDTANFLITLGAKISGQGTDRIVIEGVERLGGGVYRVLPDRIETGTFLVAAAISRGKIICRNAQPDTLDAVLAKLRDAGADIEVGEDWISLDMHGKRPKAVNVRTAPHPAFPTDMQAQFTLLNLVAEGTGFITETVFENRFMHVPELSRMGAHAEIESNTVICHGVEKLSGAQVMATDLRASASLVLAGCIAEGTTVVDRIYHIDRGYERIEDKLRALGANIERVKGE
Description: Expression and purification of E. coli MurA (UDP-N-acetylglucosamine 1-carboxyvinyltransferase, EC:2.5.1.7) was performed according to the known procedure. Briefly, the MurA plasmid was used to transform chemically competent Escherichia coli NiCo21(DE3) (New England Biolabs, Ipswich, MA, USA). The transformant was cultured at 37 °C and 250 rpm in LB broth. Expression was induced by addition of 1 mM IPTG and cultured for an additional 3 h. Cells were harvested by centrifugation (3000× g for 10 min at 4 °C), and cell pellets were stored at −80 °C until purification. Cell pellets were resuspended in buffer 50 mM Tris (pH 8), 150 mM NaCl, and 10 % glycerol and lysed on ice by sonication. Cell debris was removed by centrifugation for 30 min (16,000× g, 4 °C, repeated twice). The lysate was loaded onto a HiTrap 1 mL IMAC HP column (Cytiva, Marlborough, MA, USA). The column was washed with buffer containing 50 mM imidazole with 20 column volumes, and the protein was eluted with buffer containing 250 mM imidazole. The eluted MurA was exchanged into proprietary buffer (50 mM Tris (pH 8), 150 mM NaCl, 10 % glycerol).
The inhibition of the MurA enzyme was monitored using the colorimetric malachite green method in which orthophosphate generated during the reaction is detected. The assay was performed in 96-well microplates with a final volume of 50 μL. The MurA enzyme was preincubated with the substrate UNAG (UDP-N-acetylglucosamine, Sigma, St. Louis, MO, USA) and compound for 30 min at 37 °C. […] After incubation for 15 min at 37 °C, the enzyme reaction was ended by adding Biomol® reagent (100 µL), and the absorbance was measured at 650 nm after 5 min using a microplate reader (Synergy H4, BioTek Instruments, Inc., Winooski, VT, USA). All of the experiments were run in duplicate. […] IC50 values were determined by measuring residual activities at 7 different compound concentrations and calculated using GraphPad Prism (GraphPad Software, San Diego, CA, USA).

[2] = target: MurA (Escherichia coli, UniProt P0A749); experiment: MurA covalent labelling, intact MS; assay type: binding, E. coli; details: 5 mM fragment, 37 °C, 60 min (Figure S1)
MurA, sequence (P0A749 whole entry, the tested form may be a part): as the sequence (P0A749 whole entry) above
Description: The covalent labelling procedure was conducted as described earlier with slight modifications. First, 42 μM stock solution of MurA in 20 mM HEPES at pH 7.2–7.4 with 1 mM DTT (dithiothreitol, Sigma) was filtered through a G25 desalting column, and the medium was changed to 50 mM Tris with 0.005% Triton X-100 at pH 8.0. For the activation of the enzyme, 1 mg UNAG was added as a solid to reach 40 mM concentration, and the mixture was incubated at 37 °C for 30 min. Fragments were added from a 100 mM DMSO stock diluted in the labelling solution to 5 mM. The incubation was continued at 37 °C for an additional 60 min. After the labelling, the mixture was purified on a G25 desalting column.
The molecular weights of the conjugates were identified using a Triple-TOF 5600+ hybrid Q-TOF LC/MS/MS system (Sciex, Singapore, Woodlands) equipped with a Duo Spray Ion Source coupled with a Shimadzu Prominence LC20 UFLC (Shimadzu, Kyoto, Japan) system consisting of a binary pump, an autosampler, and a thermostated column compartment. Data acquisition and processing were performed using Analyst TF software version 1.7.1 (AB Sciex Instruments, Redwood City, CA, USA). Chromatographic separation was achieved on a Thermo BetaBasic C8 (50 mm × 2.1 mm, 3 μm, 150 Å) HPLC column. […]

[3] = NMR-based single-point GSH reactivity assay; assay type: physicochemical; details: pH 7.4, 1H NMR
Description: For the NMR assay, a 500 mM D2O stock solution was first prepared for each fragment along with an 800 mM D2O stock solution of GSH. Thereafter, a 5 mM electrophilic standard solution was prepared by adding 20 μL of stock solution to a 2 mL 100 mM potassium hydrogen phosphate/sodium hydrogen phosphate buffer solution (pH 7.4). A total of 0.5 mL of this electrophilic standard solution was placed in an NMR tube, and then the ^1H NMR was recorded. The peak values obtained during the measurement were considered the zero-point measurement or reference peaks of the reactivity study. For the reactivity measurement, 20 μL of the fragment stock solution was added to 1980 μL phosphate buffer solution (pH 7.4) along with 20 μL of GSH stock solution (final concentration = […] GSH and 5 mM fragment). The contents were vortexed until homogenization and were transferred to an NMR tube. The resulting mixture was analyzed by ^1H NMR measurements after 15 and 30 min, and 4 and 24 h. The AUC (area under the curve) values were determined via integration of the corresponding peaks in the NMR spectra.

[4] = target: T1, E. coli MurA (UDP-N-acetylglucosamine 1-carboxyvinyltransferase, EC:2.5.1.7); details: read-out: MurA IC50 (µM) Non-Methylated; first-generation non-methylated heterocycles; cited from earlier work
[5] = Table 1, methylated heterocycles, read-out: MurA IC50 (µM) Methylated

Question: For `C[n+]1ccccc1Cl` [A1+], which IC50 [1] is on record?
Answer: The IC50 was 51.6 µM.

Question: For `C[n+]1ccccc1I` [A3+], which IC50 [1] is on record?
Answer: The IC50 was 15.5 µM.

Question: For `C#Cc1cccc[n+]1C` [A6+], which IC50 [1] is on record?
Answer: Its IC50 is 50 µM.

Question: Which results are given for `C[n+]1ccc(I)cc1` [C3+]?
Answer: covalent labelling of MurA by intact MS [2]: single and double labelling on MurA; IC50 [μM] MurA [1]: single-digit micromolar; IC50 [1, 5]: 4.5 µM

Question: With `C#Cc1cc[n+](C)cc1` [C6+] as the molecule, how does the IC50 [1, 5] read?
Answer: Its IC50 is 64.7 µM.

Question: Which remaining activity at 100 µM [1] does the source give for `C[n+]1cccnc1Cl` [D1+] here?
Answer: The remaining activity at 100 µM was 99.1%.

Question: For `C[n+]1cccnc1Br` [D2+], which remaining activity at 100 µM [1] is on record?
Answer: The remaining activity at 100 µM was 98.2%.

Question: Which results are given for `C[n+]1cccnc1I` [D3+]?
Answer: IC50 [μM] MurA [1]: single-digit micromolar; IC50 [1, 5]: 2.99 µM; fold increase in MurA inhibitory potency of methylated versus non-methylated pair ([1]; from IC50 values of Table 1): 100 fold

Question: For `C#Cc1nccc[n+]1C` [D6+], which “Single point GSH reactivity (% conversion in 15 min, 16 equiv. GSH)” value [3] is on record?
Answer: Its value is 100%.

Question: What about the remaining activity at 100 µM [1] of the same molecule?
Answer: The remaining activity at 100 µM was 6.7%.

Question: For `C#Cc1cnc[n+](C)c1` [F6+], which remaining activity at 100 µM [1] is on record?
Answer: Its remaining activity at 100 µM is 77.8%.

Question: For `Cn1cc[n+](C)c1I` [H3+], which “Single point GSH reactivity (% conversion in 15 min, 16 equiv. GSH)” value [3] is on record?
Answer: The value was 100%.

Question: And the remaining activity at 100 µM [1]?
Answer: The remaining activity at 100 µM was 10.4%.

Question: What about the IC50 [1, 5] of the same molecule?
Answer: The IC50 was 10.2 µM.

Question: What does the source list for `C[n+]1ccoc1I` [N3+]?
Answer: Single point GSH reactivity (% conversion in 15 min, 16 equiv. GSH) [3]: 100%; remaining activity at 100 µM [1]: 1.2%

Question: Which remaining activity at 100 µM [1] does the source give for `C[n+]1ccsc1Br` [R2+] here?
Answer: Its remaining activity at 100 µM is 42.8%.

Question: For `C[C@@H]1O[C@@H]1P(=O)(O)O` [fosfomycin], which IC50 [4] is on record?
Answer: The IC50 was 0.25 ± 0.01 µM.
